In the NIST ThermoML archive (doi:10.1016/j.jct.2007.03.009):
Where “and” joins values, the source holds several entries; their conditions need not be identical. Equal entries are not always repeated. Numbers after ± are expanded uncertainties.

Conditions: for mass density: 298 K, 101.33 kPa, Liquid, masses and of the volumes of pellets.; for Normal melting temperature / vapor or sublimation pressure: Crystal; for Normal melting temperature: DTA; for vapor or sublimation pressure: Knudsen effusion

Structure (SMILES) | mass density | Normal melting temperature | vapor or sublimation pressure (323.27 K) | vapor or sublimation pressure (325.24 K) | vapor or sublimation pressure (327.12 K) | vapor or sublimation pressure (329.26 K) | vapor or sublimation pressure (331.23 K) | vapor or sublimation pressure (333.11 K) | vapor or sublimation pressure (335.12 K) | vapor or sublimation pressure (337.26 K) | vapor or sublimation pressure (339.12 K) | vapor or sublimation pressure (341.22 K) | vapor or sublimation pressure (343.25 K)
O=C1c2ccccc2C(=O)N1CCCl [N-(2-chloroethyl)phthalimide] | 1218 ± 24 kg/m3 | 82.8 ± 0.5 °C |  |  |  |  |  |  |  |  |  |  | 
O=C1c2ccccc2C(=O)N1CCBr [N-(2-bromoethyl)phthalimide] | 1323 ± 26 kg/m3 | 81.5 ± 0.5 °C |  |  |  |  |  |  |  |  |  |  | 
O=C1c2ccccc2C(=O)N1CCl [N-(chloromethyl)phthalimide] | 1081 ± 22 kg/m3 | 133.5 ± 0.5 °C | 0.000111 ± 2e-05 kPa and 0.000106 ± 2e-05 kPa | 0.000138 ± 2.1e-05 kPa and 0.000137 ± 2.1e-05 kPa and 0.000132 ± 2.1e-05 kPa | 0.000171 ± 2.1e-05 kPa and 0.000168 ± 2.1e-05 kPa and 0.000169 ± 2.1e-05 kPa | 0.000218 ± 2.1e-05 kPa and 0.000207 ± 2.1e-05 kPa and 0.00022 ± 2.1e-05 kPa | 0.000282 ± 2.2e-05 kPa and 0.00027 ± 2.2e-05 kPa and 0.000262 ± 2.2e-05 kPa | 0.00033 ± 2.3e-05 kPa and 0.000328 ± 2.3e-05 kPa and 0.000329 ± 2.3e-05 kPa | 0.00042 ± 2.5e-05 kPa and 0.000413 ± 2.5e-05 kPa and 0.000402 ± 2.5e-05 kPa | 0.000534 ± 2.8e-05 kPa and 0.000519 ± 2.7e-05 kPa and 0.000507 ± 2.7e-05 kPa | 0.000648 ± 3e-05 kPa and 0.000644 ± 3e-05 kPa and 0.000618 ± 3e-05 kPa | 0.000835 ± 3.6e-05 kPa and 0.000801 ± 3.5e-05 kPa and 0.00077 ± 3.4e-05 kPa | 0.001007 ± 4.1e-05 kPa and 0.000989 ± 4e-05 kPa and 0.000946 ± 3.9e-05 kPa
O=C1c2ccccc2C(=O)N1CCCBr [N-(3-bromopropyl)phthalimide] | 1051 ± 21 kg/m3 | 72.8 ± 0.5 °C |  |  |  |  |  |  |  |  |  |  | 
